Measurements: patent publication US4226863A, “7-Methoxy cephalosporins” (Sumitomo Chemical Company, Limited, priority 1975, dated 1980)
Values after ≈ are worked out from the molar mass of the structure shown.

Assays:
Format in all cases: cell-based
[1] = tested on: Enterobacter aerogenes No. 101; test: antimicrobial activity, minimum inhibitory concentration, Enterobacter aerogenes No. 101; details: Klebsiella aerogenes
Description: (§1) The antimicrobial activities of the compounds prepared in the previous Examples were determined in a usual manner and the minimum inhibitory concentrations (in terms of μg/ml) are set forth in the Table below.

Proteus vulgaris HX 19 = test: antimicrobial activity, minimum inhibitory concentration, Proteus vulgaris HX 19; details: HX19
Description: as §1

[2] = tested on: Pseudomonas aeruginosa IID 5142; test: antimicrobial activity, minimum inhibitory concentration, Pseudomonas aeruginosa IID 5142; details: IID5142
Description: as §1

Serratia No. 115 = test: antimicrobial activity, minimum inhibitory concentration, Serratia No. 115
Description: as §1

Escherichia coli NIHJ = test: antimicrobial activity, minimum inhibitory concentration, Escherichia coli NIHJ

Compound	MIC [1] [µg/mL]	MIC (Proteus vulgaris HX 19) [µg/mL]	MIC [2] [µg/mL]	MIC (Serratia No. 115) [µg/mL]	MIC (Escherichia coli NIHJ) [µg/mL]
CO[C@@]1(NC(=O)[C@H](NC(=O)c2cnc3cccnc3c2O)c2ccccc2)C(=O)N2C(C(=O)O)=C(COC(C)=O)CS[C@@H]21 [Example 1, 3-Acetoxymethyl-7α-methoxy-7β-[D-2-(4-hydroxy-1,5-naphthyridine-3-carbonamido)-2-phenylacetamido]-3-cephem-4-carboxylic Acid]	6.25 (≈ 10.3 µM)	0.39 (≈ 0.642 µM)	1.56 (≈ 2.57 µM)	50 (≈ 82.3 µM)	3.13 (≈ 5.15 µM)
CO[C@@]1(NC(=O)[C@H](NC(=O)c2cnc3cccnc3c2O)c2ccc(O)cc2)C(=O)N2C(C(=O)O)=C(CSc3nnnn3C)CS[C@@H]21 [Example 2, 3-[(1-Methyltetrazol-5-yl)thiomethyl]-7α-methoxy-7β-[D-2-(4-hydroxy-1,5-naphthyridine-3-carbonamido)-2-(p-hydroxyphenyl)acetamido]-3-cephem-4-carboxylic Acid]	3.13 (≈ 4.6 µM)	0.2 (≈ 0.294 µM)	1.56 (≈ 2.3 µM)	3.13 (≈ 4.6 µM)	0.78 (≈ 1.15 µM)
CO[C@@]1(NC(=O)[C@H](NC(=O)c2cnc3cccnc3c2O)c2ccc(O)cc2)C(=O)N2C(C(=O)O)=C(CSc3cnn[nH]3)CS[C@@H]21 [Example 3, 3-[(Triazol-5-yl)thiomethyl]-7α-methoxy-7β-[D-2-(4-hydroxy-1,5-naphthyridine-3-carbonamido)-2-(p-hydroxyphenyl)acetamido]-3-cephem-4-carboxylic Acid]	6.25 (≈ 9.4 µM)	0.78 (≈ 1.17 µM)	3.13 (≈ 4.71 µM)	25 (≈ 37.6 µM)	3.13 (≈ 4.71 µM)
CO[C@@]1(NC(=O)[C@H](NC(=O)c2cnc3cccnc3c2O)c2ccccc2)C(=O)N2C(C(=O)[O-])=C(C[n+]3ccccc3)CS[C@@H]21 [Example 4, 3-Pyridiniummethyl-7α-methoxy-7β-[D-2-(4-hydroxy-1,5-naphthyridine-3-carbonamido)-2-phenylacetamido]-3-cephem-4-carboxylate]	12.5 (≈ 19.9 µM)	0.78 (≈ 1.24 µM)	6.25 (≈ 9.97 µM)	25 (≈ 39.9 µM)	3.13 (≈ 4.99 µM)
CO[C@@]1(NC(=O)[C@H](NC(=O)c2cnc3cccnc3c2O)c2ccc(O)cc2)C(=O)N2C(C(=O)O)=C(COC(N)=O)CS[C@@H]21 [Example 5, 3-Carbamoyloxymethyl-7α-methoxy-7β-[D-2-(4-hydroxy-1,5-naphthyridine-3-carbonamido)-2-(p-hydroxyphenyl)-acetamido]-3-cephem-4-caboxylic Acid]	6.25 (≈ 10 µM)	0.39 (≈ 0.624 µM)	3.13 (≈ 5.01 µM)	50 (≈ 80.1 µM)	3.13 (≈ 5.01 µM)
CO[C@@]1(NC(=O)C(NC(=O)c2cnccc2O)c2ccc(O)cc2)C(=O)N2C(C(=O)O)=C(CSc3nnnn3C)CS[C@@H]21 (stereo partly shown) [Example 9]	12.5 (≈ 19.9 µM)	0.39 (≈ 0.62 µM)	6.25 (≈ 9.94 µM)	50 (≈ 79.5 µM)	12.5 (≈ 19.9 µM)

The next lines start with the values.

MIC [1] [µg/mL]	MIC (Proteus vulgaris HX 19) [µg/mL]	MIC [2] [µg/mL]	MIC (Serratia No. 115) [µg/mL]	MIC (Escherichia coli NIHJ) [µg/mL]	Compound
6.25 (≈ 9.4 µM)	0.78 (≈ 1.17 µM)	6.25 (≈ 9.4 µM)	12.5 (≈ 18.8 µM)	6.25 (≈ 9.4 µM)	CO[C@@]1(NC(=O)C(NC(=O)c2cnc3cncnc3c2O)c2ccccc2)C(=O)N2C(C(=O)O)=C(CSc3nnnn3C)CS[C@@H]21 (stereo partly shown) [Example 7]
25 (≈ 44.9 µM)	0.39 (≈ 0.701 µM)	6.25 (≈ 11.2 µM)	100 (≈ 180 µM)	12.5 (≈ 22.5 µM)	CO[C@@]1(NC(=O)C(NC(=O)c2cnccc2O)c2ccccc2)C(=O)N2C(C(=O)O)=C(COC(C)=O)CS[C@@H]21 (stereo partly shown) [Example 8]
12.5 (≈ 19.9 µM)	0.39 (≈ 0.619 µM)	12.5 (≈ 19.9 µM)	50 (≈ 79.4 µM)	12.5 (≈ 19.9 µM)	CO[C@@]1(NC(=O)C(NC(=O)c2cncnc2O)c2ccc(O)cc2)C(=O)N2C(C(=O)O)=C(CSc3nnnn3C)CS[C@@H]21 (stereo partly shown) [Example 10]
50 (≈ 89.5 µM)	0.78 (≈ 1.4 µM)	12.5 (≈ 22.4 µM)	100 (≈ 179 µM)	12.5 (≈ 22.4 µM)	CO[C@@]1(NC(=O)C(NC(=O)c2cncnc2O)c2ccccc2)C(=O)N2C(C(=O)O)=C(COC(N)=O)CS[C@@H]21 (stereo partly shown) [Example 11]
25 (≈ 39.7 µM)	0.78 (≈ 1.24 µM)	25 (≈ 39.7 µM)	100 (≈ 159 µM)	12.5 (≈ 19.9 µM)	CO[C@@]1(NC(=O)C(NC(=O)c2ccnnc2O)c2ccc(O)cc2)C(=O)N2C(C(=O)O)=C(CSc3nnnn3C)CS[C@@H]21 (stereo partly shown) [Example 12]
